Assay results as given in ChEMBL document CHEMBL1201862, “PubChem BioAssay data set” (2004).
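48-hour exposure; five concentrations; linearly interpolated endpoints. Abbreviation: GI50, concentration required for 50% inhibition of growth.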 The source made the active and inactive calls. No stated cut-off is given here; in the data, active = GI50 up to about 1.1 µM and inactive = higher.

Assays:
Experiment in all cases: DTP human tumour cell line panel, 48 h
DU-145 = tested on: DU-145
HOP-62 = tested on: HOP-62
SK-OV-3 = tested on: SK-OV-3
ACHN = tested on: ACHN
OVCAR-3 = tested on: OVCAR-3
Hs-578T = tested on: Hs-578T
U-251 = tested on: U-251
SNB-75 = tested on: SNB-75
MDA-MB-231 = tested on: MDA-MB-231
UACC-62 = tested on: UACC-62
HT-29 = tested on: HT-29
M14 = tested on: M14
OVCAR-8 = tested on: OVCAR-8
HCT-116 = tested on: HCT-116
NCI-H460 = tested on: NCI-H460
SF-539 = tested on: SF-539
CCRF-CEM = tested on: CCRF-CEM
SF-295 = tested on: SF-295
NCI-H522 = tested on: NCI-H522
HOP-92 = tested on: HOP-92

Row | Structure (SMILES) | GI50 (DU-145) | GI50 (HOP-62) | GI50 (SK-OV-3) | GI50 (ACHN) | GI50 (OVCAR-3) | GI50 (Hs-578T) | GI50 (U-251) | GI50 (SNB-75) | GI50 (MDA-MB-231) | GI50 (UACC-62) | GI50 (HT-29) | GI50 (M14) | GI50 (OVCAR-8) | GI50 (HCT-116) | GI50 (NCI-H460) | GI50 (SF-539) | GI50 (CCRF-CEM) | GI50 (SF-295) | GI50 (NCI-H522) | GI50 (HOP-92)
1 | COc1ccc(/C=N/n2c(Cc3ccccc3)n[nH]c2=O)cc1 | > 100 µM (inactive) | 69.3 µM (inactive) | > 100 µM (inactive) | > 100 µM (inactive) | > 100 µM (inactive) | 32.3 µM (inactive) | 37 µM (inactive) | > 100 µM (inactive) | 22.6 µM (inactive) | > 100 µM (inactive) | > 100 µM (inactive) | > 100 µM (inactive) | > 100 µM (inactive) | > 100 µM (inactive) | > 100 µM (inactive) | > 100 µM (inactive) | > 100 µM (inactive) | 39.8 µM (inactive) | – | –
2 | Cc1ccc(N2C(=O)C3c4[nH]c5ccc(C)cc5c4C4CCC(C(C)(C)C)CC4C3C2=O)cc1 (stereo unspecified) | 17.8 µM (inactive) | 10.8 µM (inactive) | – | – | 12.1 µM (inactive) | 10.4 µM (inactive) | 10.9 µM (inactive) | – | 10.3 µM (inactive) | 16.2 µM (inactive) | 15.6 µM (inactive) | 31 µM (inactive) | 9.62 µM (inactive) | 14.3 µM (inactive) | 7.36 µM (inactive) | – | 7.59 µM (inactive) | 15.2 µM (inactive) | 14.3 µM (inactive) | 16.1 µM (inactive)
3 | O=C1c2cccc3cccc(c23)C(=O)N1CCCNOCCONCCCN1C(=O)c2cccc3cccc(c23)C1=O | > 100 µM (inactive) | 62.1 µM (inactive) | > 100 µM (inactive) | > 100 µM (inactive) | 94 µM (inactive) | 92.3 µM (inactive) | 59.7 µM (inactive) | 42.6 µM (inactive) | > 100 µM (inactive) | > 100 µM (inactive) | 92.5 µM (inactive) | 62.4 µM (inactive) | 43.3 µM (inactive) | 27.4 µM (inactive) | 59.4 µM (inactive) | – | 11.8 µM (inactive) | > 100 µM (inactive) | – | 56 µM (inactive)
4 | Cc1ccc(S(=O)(=O)Oc2nc3ccccc3nc2N(S(=O)(=O)c2ccc(C)cc2)S(=O)(=O)c2ccc(C)cc2)cc1 | 53.8 µM (inactive) | – | > 100 µM (inactive) | 45.9 µM (inactive) | 41.5 µM (inactive) | 63.1 µM (inactive) | 39.9 µM (inactive) | 37.2 µM (inactive) | 71.6 µM (inactive) | 56.5 µM (inactive) | 28.2 µM (inactive) | 76.6 µM (inactive) | 52.2 µM (inactive) | 36.3 µM (inactive) | 28.7 µM (inactive) | 29 µM (inactive) | 50.1 µM (inactive) | 30.3 µM (inactive) | 74 µM (inactive) | –
5 | Cc1ccc(-c2n[nH]c(=O)n2N2C(=O)C=CC2=O)cc1 | > 100 µM (inactive) | > 100 µM (inactive) | > 100 µM (inactive) | – | > 100 µM (inactive) | > 100 µM (inactive) | > 100 µM (inactive) | – | > 100 µM (inactive) | > 100 µM (inactive) | > 100 µM (inactive) | > 100 µM (inactive) | > 100 µM (inactive) | > 100 µM (inactive) | > 100 µM (inactive) | > 100 µM (inactive) | > 100 µM (inactive) | > 100 µM (inactive) | > 100 µM (inactive) | –
6 | CN(C)CCOc1ccc(-c2c(Oc3ccccc3)c(=O)oc3ccccc23)cc1 | 13.8 µM (inactive) | – | – | 11.9 µM (inactive) | 12.4 µM (inactive) | 17.8 µM (inactive) | 4.86 µM (inactive) | 9.59 µM (inactive) | 4.93 µM (inactive) | 13.3 µM (inactive) | 12.5 µM (inactive) | 2.23 µM (inactive) | 15.6 µM (inactive) | 4.83 µM (inactive) | 13.5 µM (inactive) | 14.1 µM (inactive) | 0.459 µM (active) | 4.42 µM (inactive) | 11.3 µM (inactive) | 17.2 µM (inactive)
7 | O=C(CC(C(=O)c1cccs1)c1ccsc1)c1ccco1 (stereo unspecified) | 31 µM (inactive) | 64.1 µM (inactive) | 41.3 µM (inactive) | 32.3 µM (inactive) | 54.8 µM (inactive) | 19.1 µM (inactive) | 21.4 µM (inactive) | 28 µM (inactive) | – | 22.8 µM (inactive) | 4.8 µM (inactive) | 19.4 µM (inactive) | 32.3 µM (inactive) | 21.2 µM (inactive) | 24.2 µM (inactive) | 27.5 µM (inactive) | 19.1 µM (inactive) | 39.7 µM (inactive) | 20 µM (inactive) | > 100 µM (inactive)
8 | O=C(Nc1ccn(C2CCC(CO)O2)c(=O)n1)c1ccccc1 (stereo unspecified) | > 100 µM (inactive) | > 100 µM (inactive) | > 100 µM (inactive) | > 100 µM (inactive) | – | > 100 µM (inactive) | > 100 µM (inactive) | 79.6 µM (inactive) | > 100 µM (inactive) | > 100 µM (inactive) | > 100 µM (inactive) | > 100 µM (inactive) | > 100 µM (inactive) | > 100 µM (inactive) | – | > 100 µM (inactive) | 34.1 µM (inactive) | > 100 µM (inactive) | > 100 µM (inactive) | –
